Assay results reported in ChEMBL document CHEMBL3045600, “Synthesis and Fungicidal Activities of Phenoxyphenyl Alkoxyiminoacetamide Derivatives” (J Pestic Sci, 1998).

Key:
[1] = tested on: Thanatephorus cucumeris; assay: Fungicidal activity against Thanatephorus cucumeris assessed as rice sheath blight disease control at 31.3 ppm foliar application for 24 hr before inoculation at 26 +- 2 measured after 5 days by preventive manner; format: functional
[2] = tested on: Thanatephorus cucumeris; assay: Fungicidal activity against Thanatephorus cucumeris assessed as rice sheath blight disease control at 7.8 ppm foliar application for 24 hr before inoculation at 26 +- 2 measured after 5 days by preventive manner; format: functional
[3] = tested on: Thanatephorus cucumeris; assay: Fungicidal activity against Thanatephorus cucumeris assessed as rice sheath blight disease control at 2 ppm foliar application for 24 hr before inoculation at 26 +- 2 measured after 5 days by preventive manner; format: functional
[4] = tested on: Podosphaera fuliginea; assay: Fungicidal activity against Podosphaera fuliginea assessed as cucumber powdery mildew control under greenhouse at 7.8 ppm foliar application 24 hr after inoculation on upper surface of leaf at 23 +/- 2 degC by curative manner; format: functional
[5] = tested on: Podosphaera fuliginea; assay: Fungicidal activity against Podosphaera fuliginea assessed as cucumber powdery mildew control under greenhouse at 2 ppm foliar application 24 hr after inoculation on upper surface of leaf at 23 +/- 2 degC by curative manner; format: functional
[6] = tested on: Pyricularia oryzae; assay: Fungicidal activity against Magnaporthe oryzae assessed as rice blast disease control at 10 ppm submerged application measured after 7 days; format: functional
[7] = tested on: Pyricularia oryzae; assay: Fungicidal activity against Magnaporthe oryzae assessed as rice blast disease control at 2.5 ppm submerged application measured after 7 days; format: functional
[8] = tested on: Pyricularia oryzae; assay: Fungicidal activity against Magnaporthe oryzae assessed as rice blast disease control at 0.63 ppm submerged application measured after 7 days; format: functional
[9] = tested on: Pyricularia oryzae; assay: Fungicidal activity against Magnaporthe oryzae assessed as rice blast disease control at 0.16 ppm submerged application measured after 7 days; format: functional
[10] = tested on: Pseudoperonospora cubensis; assay: Fungicidal activity against Pseudoperonospora cubensis assessed as cucumber downy mildew disease control at 125 ppm foliar application 24 hr before inoculation on upper surface of leaf by preventive manner; format: functional
[11] = tested on: Pseudoperonospora cubensis; assay: Fungicidal activity against Pseudoperonospora cubensis assessed as cucumber downy mildew disease control at 31.3 ppm foliar application 24 hr before inoculation on upper surface of leaf by preventive manner; format: functional
[12] = tested on: Pseudoperonospora cubensis; assay: Fungicidal activity against Pseudoperonospora cubensis assessed as cucumber downy mildew disease control at 7.8 ppm foliar application 24 hr before inoculation on upper surface of leaf by preventive manner; format: functional
[13] = tested on: Pseudoperonospora cubensis; assay: Fungicidal activity against Pseudoperonospora cubensis assessed as cucumber downy mildew disease control at 2 ppm foliar application 24 hr before inoculation on upper surface of leaf by preventive manner; format: functional
[14] = tested on: Botrytis cinerea; assay: Fungicidal activity against Botryotinia fuckeliana assessed as cucumber gray mold disease control at 125 ppm foliar application 24 hr before inoculation at 22 +/- 2 degC measured after 3 days by preventive manner; format: functional
[15] = tested on: Botrytis cinerea; assay: Fungicidal activity against Botryotinia fuckeliana assessed as cucumber gray mold disease control at 31.3 ppm foliar application 24 hr before inoculation at 22 +/- 2 degC measured after 3 days by preventive manner; format: functional
[16] = tested on: Botrytis cinerea; assay: Fungicidal activity against Botryotinia fuckeliana assessed as cucumber gray mold disease control at 7.8 ppm foliar application 24 hr before inoculation at 22 +/- 2 degC measured after 3 days by preventive manner; format: functional
[17] = tested on: Botrytis cinerea; assay: Fungicidal activity against Botryotinia fuckeliana assessed as cucumber gray mold disease control at 2 ppm foliar application 24 hr before inoculation at 22 +/- 2 degC measured after 3 days by preventive manner; format: functional
[18] = tested on: Podosphaera fuliginea; assay: Fungicidal activity against Podosphaera fuliginea assessed as cucumber powdery mildew control under greenhouse at 125 ppm foliar application 24 hr before inoculation on upper surface of leaf at 23 +/- 2 degC by preventive manner; format: functional
[19] = tested on: Podosphaera fuliginea; assay: Fungicidal activity against Podosphaera fuliginea assessed as cucumber powdery mildew control under greenhouse at 31.3 ppm foliar application 24 hr before inoculation on upper surface of leaf at 23 +/- 2 degC by preventive manner; format: functional
[20] = tested on: Podosphaera fuliginea; assay: Fungicidal activity against Podosphaera fuliginea assessed as cucumber powdery mildew control under greenhouse at 7.8 ppm foliar application 24 hr before inoculation on upper surface of leaf at 23 +/- 2 degC by preventive manner; format: functional
[21] = tested on: Podosphaera fuliginea; assay: Fungicidal activity against Podosphaera fuliginea assessed as cucumber powdery mildew control under greenhouse at 2 ppm foliar application 24 hr before inoculation on upper surface of leaf at 23 +/- 2 degC by preventive manner; format: functional
[22] = tested on: Thanatephorus cucumeris; assay: Fungicidal activity against Thanatephorus cucumeris assessed as rice sheath blight disease control at 125 ppm foliar application for 24 hr before inoculation at 26 +- 2 measured after 5 days by preventive manner; format: functional
[23] = tested on: Podosphaera fuliginea; assay: Fungicidal activity against Podosphaera fuliginea assessed as cucumber powdery mildew control under greenhouse at 125 ppm foliar application 24 hr after inoculation on upper surface of leaf at 23 +/- 2 degC by curative manner; format: functional
[24] = tested on: Podosphaera fuliginea; assay: Fungicidal activity against Podosphaera fuliginea assessed as cucumber powdery mildew control under greenhouse at 31.3 ppm foliar application 24 hr after inoculation on upper surface of leaf at 23 +/- 2 degC by curative manner; format: functional
[25] = tested on: Botrytis cinerea; assay: Fungicidal activity against Botryotinia fuckeliana assessed as cucumber gray mold disease control at 31.3 ppm foliar application 24 hr after inoculation at 22 +/- 2 degC measured after 3 days by curative manner; format: functional
[26] = tested on: Botrytis cinerea; assay: Fungicidal activity against Botryotinia fuckeliana assessed as cucumber gray mold disease control at 7.8 ppm foliar application 24 hr after inoculation at 22 +/- 2 degC measured after 3 days by curative manner; format: functional
[27] = tested on: Botrytis cinerea; assay: Fungicidal activity against Botryotinia fuckeliana assessed as cucumber gray mold disease control at 2 ppm foliar application 24 hr after inoculation at 22 +/- 2 degC measured after 3 days by curative manner; format: functional
[28] = tested on: Pseudoperonospora cubensis; assay: Fungicidal activity against Pseudoperonospora cubensis assessed as cucumber downy mildew disease control at 125 ppm foliar application 24 hr after inoculation on upper surface of leaf by curative manner; format: functional
[29] = tested on: Pseudoperonospora cubensis; assay: Fungicidal activity against Pseudoperonospora cubensis assessed as cucumber downy mildew disease control at 31.3 ppm foliar application 24 hr after inoculation on upper surface of leaf by curative manner; format: functional
[30] = tested on: Pseudoperonospora cubensis; assay: Fungicidal activity against Pseudoperonospora cubensis assessed as cucumber downy mildew disease control at 7.8 ppm foliar application 24 hr after inoculation on upper surface of leaf by curative manner; format: functional
[31] = tested on: Pseudoperonospora cubensis; assay: Fungicidal activity against Pseudoperonospora cubensis assessed as cucumber downy mildew disease control at 2 ppm foliar application 24 hr after inoculation on upper surface of leaf by curative manner; format: functional
[32] = tested on: Botrytis cinerea; assay: Fungicidal activity against Botryotinia fuckeliana assessed as cucumber gray mold disease control at 125 ppm foliar application 24 hr after inoculation at 22 +/- 2 degC measured after 3 days by curative manner; format: functional
[33] = tested on: Cladosporium herbarum; assay: Fungicidal activity against Cladosporium herbarum assessed as inhibition of mycelial growth by agar dilution method; format: functional, organism-based
[34] = tested on: Pyricularia oryzae; assay: Fungicidal activity against Magnaporthe oryzae assessed as inhibition of mycelial growth by agar dilution method; format: functional, organism-based
[35] = tested on: Colletotrichum lagenaria; assay: Fungicidal activity against Colletotrichum lagenaria assessed as inhibition of mycelial growth by agar dilution method; format: functional, organism-based
[36] = tested on: Fusarium oxysporum; assay: Fungicidal activity against Fusarium oxysporum assessed as inhibition of mycelial growth by agar dilution method; format: functional, organism-based
[37] = tested on: Alternaria alternata; assay: Fungicidal activity against Alternaria alternata apple pathotype assessed as inhibition of mycelial growth by agar dilution method; format: functional, organism-based
[38] = tested on: Botrytis cinerea; assay: Fungicidal activity against Botryotinia fuckeliana assessed as inhibition of mycelial growth by agar dilution method; format: functional, organism-based
[39] = tested on: Athelia rolfsii; assay: Fungicidal activity against Athelia rolfsii assessed as inhibition of mycelial growth by agar dilution method; format: functional, organism-based, Agroathelia rolfsii
[40] = tested on: Colletotrichum gloeosporioides; assay: Fungicidal activity against Glomerella cingulata assessed as inhibition of mycelial growth by agar dilution method; format: functional, organism-based
[41] = tested on: Sclerotinia sclerotiorum; assay: Fungicidal activity against Sclerotinia sclerotiorum assessed as inhibition of mycelial growth by agar dilution method; format: functional, organism-based
[42] = tested on: Pythium aphanidermatum; assay: Fungicidal activity against Pythium aphanidermatum assessed as inhibition of mycelial growth by agar dilution method; format: functional, organism-based

Compound	Activity [1]	Activity [2]	Activity [3]	Activity [4]	Activity [5]	Activity [10]	Activity [11]	Activity [12]	Activity [13]	Activity [14]	Activity [15]	Activity [16]	Activity [17]	Activity [18]	Activity [19]	Activity [20]	Activity [21]	Activity [22]	Activity [23]	Activity [24]	other results
CNC(=O)/C(=N/OC)c1ccccc1Oc1ccc(OCc2ccccc2)cc1	<70%	<70%	<70%	<50%	<50%	<70%	<70%	<70%	<70%	<70%	<70%	<70%	<70%	<70%	<70%	<70%	<70%	<70%	<50%	<50%	Activity [6]: 50%; Activity [7]: 50%; Activity [8]: 50%; Activity [9]: 50%
CNC(=O)/C(=N/OC)c1cc([Si](C)(C)C)ccc1Oc1ccccc1	<70%	<70%	<70%			<70%	<70%	<70%	<70%	<70%	<70%	<70%	<70%	<70%	<70%	<70%	<70%	<70%			
CNC(=O)/C(=N/OC)c1cccc([N+](=O)[O-])c1Oc1ccccc1	<70%	<70%	<70%			<70%	<70%	<70%	<70%	<70%	<70%	<70%	<70%	<70%	<70%	<70%	<70%	<70%			
CNC(=O)/C(=N/OC)c1cc(C(F)(F)F)ccc1Oc1ccccc1	<70%	<70%	<70%			<70%	<70%	<70%	<70%	<70%	<70%	<70%	<70%	<70%	<70%	<70%	<70%	<70%			
CNC(=O)/C(=N/OC)c1ccccc1Oc1ccccc1[N+](=O)[O-]	<70%	<70%	<70%	<50%	<50%	<70%	<70%	<70%	<70%	<70%	<70%	<70%	<70%	<70%	<70%	<70%	<70%	<70%	<50%	<50%	Activity [25]: <50%; Activity [26]: <50%; Activity [27]: <50%; Activity [28]: <50%; Activity [29]: <50%; Activity [30]: <50%; Activity [31]: <50%; Activity [32]: <50%
CNC(=O)/C(=N\OC)c1ccccc1Oc1ccccc1	0%	0%				70%	0%	0%		44%	36%	18%		100%	100%	40%		50%			EC50 [33]: 41.8 ppm; EC50 [34]: 49.1 ppm; EC50 [35]: 61.8 ppm; EC50 [36]: 58.1 ppm; EC50 [37]: > 64 ppm; EC50 [38]: 1.7 ppm; EC50 [39]: 41.1 ppm; EC50 [40]: 16.2 ppm; EC50 [41]: 11.9 ppm; EC50 [42]: 28.1 ppm
